From patent publication US20230322735A1, “AZETIDINYL TRYPTAMINES AND METHODS OF TREATING PSYCHIATRIC DISORDERS” (priority 2020, published 2023)
Structures can show the parent of a compound that is named as a salt. Where two headings read alike, the source gives them in different places.

Assays:
[1] = biological target: T1, 5-HT2B receptor (Homo sapiens, UniProt P41595); assay: FLIPR Ca2+ flux agonist assay at 5-HT2B (HEK293); assay type: cell-based; settings: for 5-HT2B % Act @ Max Dose: Ca2+ flux, agonist mode, HEK293
T1 construct: host or cells: HEK293
Description: (§1) A solution of 250 mM probenecid in 1 mL FLIPR assay buffer was prepared fresh. This was combined with a fluorescent dye (Fluo-4 Direct™) to make a final assay concentration of 2.5 mM. […] The fluorescent dye was then added to the assay plate along with assay buffer to a final volume of 40 μL. The cell plate was incubated for 50 min at 37° C. and 5% CO2 and placed into the FLIPR Tetra along with the compound plate. 10 μL of references and compounds were then transferred from the compound plate into the cell plate and the fluorescent signal was read.

[2] = Stability in mouse brain homogenate; settings: for half-life at 1 μM: male, CD-1, mouse, mouse brain homogenate; for % Compound Remaining (after 120 min) / t1/2: mouse brain homogenate (male CD-1), 1 μM, 37° C.
[3] = biological target: T2, 5-HT2A receptor (Homo sapiens, UniProt P28223); assay: FLIPR Ca2+ flux agonist assay at 5-HT2A (HEK293); assay type: cell-based
T2 construct: host or cells: HEK293
Description: as §1

[4] = biological target: T3, 5-HT1A receptor (Homo sapiens, UniProt P08908); assay: FLIPR Ca2+ flux agonist assay at 5-HT1A (CHO cells); assay type: cell-based; settings: for fold more potent at 5-HT1A than dimethyl (and methylethyl) counterparts: Ca2+ flux EC50 compared with DMT/MET, psilocin/4-HO-MET, 5-MeO-DMT; for 5-HT1A % Act @ Max Dose: Ca2+ flux, agonist mode, CHO cells
T3 construct: host or cells: CHO cells
T3 sequence (P08908 1-422): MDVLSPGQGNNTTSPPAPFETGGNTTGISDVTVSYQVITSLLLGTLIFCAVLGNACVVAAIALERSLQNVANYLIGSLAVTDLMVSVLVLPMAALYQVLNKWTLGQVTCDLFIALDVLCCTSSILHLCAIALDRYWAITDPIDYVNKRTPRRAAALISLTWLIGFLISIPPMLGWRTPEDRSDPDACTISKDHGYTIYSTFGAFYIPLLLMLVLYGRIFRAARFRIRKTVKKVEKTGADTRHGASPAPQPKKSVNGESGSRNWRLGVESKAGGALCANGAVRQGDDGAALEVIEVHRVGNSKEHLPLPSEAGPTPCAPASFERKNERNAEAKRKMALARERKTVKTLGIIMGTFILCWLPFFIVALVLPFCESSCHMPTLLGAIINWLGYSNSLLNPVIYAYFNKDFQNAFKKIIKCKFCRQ
Description: as §1

[5] = Stability in rat brain homogenate; settings: for half-life at 1 μM: male, Sprague Dawley, rat, rat brain homogenate; for % Compound Remaining (after 120 min) / t1/2: rat brain homogenate (male Sprague Dawley), 1 μM, 37° C.
[6] = system: C57BL/6 mice; assay: Head twitch response (HTR) in mice; assay type: in vivo, mouse; settings: SC; for maximal effect in the HTR assay: maximum over doses tested
[7] = Metabolic stability in human liver microsomes (HLM); settings: for half-life at 1 μM / microsomal CLint at 1 μM: both, human, pooled human liver microsomes, pH 7.4; for metabolic stability in HLM compared with dimethyl counterpart: vs DMT, psilocin, 5-MeO-DMT respectively; for t1/2: HLM, 1 μM test compound, 0.50 mg protein/mL, NADPH, 37° C., 60 min
[8] = Chemical stability of the product on storage and analysis; assay type: physicochemical; settings: storage and handling
Description: Note: The product 2 is unstable and should be stored frozen, protected from light, and under inert gas. If stored properly, stability has been confirmed by qNMR for at least 1 month.
A mixture of 3-(2-(azetidin-1-yl)ethyl)-1H-indol-4-ol (2, 50 mg, 231.18 μmol, 1 eq) and pyridine (23.77 mg, 300.54 μmol, 24.26 μL, 1.3 eq) in DCM (1 mL) was cooled to 0° C. Then acetic anhydride (25.96 mg, 254.30 μmol, 23.82 μL, 1.1 eq) was added dropwise at 0° C. and the resulting mixture was stirred at 25° C. for 1 h. At this time, the solvent was removed and the residue was purified by prep-HPLC (column=Waters Xbridge BEH C18 (100*30 mm, 10 μm); mobile phase=water(NH4HCO3)-ACN, B %=5%-40%; 10 min run time) to provide 3-(2-(azetidin-1-yl)ethyl)-1H-indol-4-yl acetate (4) as a white solid (20 mg, 33% yield). ^1H NMR (400 MHz, DMSO-d6) δ 11.01 (br s, 1H), 7.22 (d, J=8.0 Hz, 1H), 7.11 (d, J=1.6 Hz, 1H), 7.02 (t, J=8.0 Hz, 1H), 6.64 (d, J=7.6 Hz, 1H), 3.09 (t, J=6.8 Hz, 4H), 2.57-2.54 (m, 4H), 2.32 (s, 3H), 1.96-1.90 (m, 2H); LCMS (RT=0.983 min, MS calc.: 258.14, [M+H]+=259.1).

[9] = Pro-drug conversion to Compound 2 after administration to an animal; assay type: in vivo; settings: when administered to an animal, for example a human
[10] = biological target: T4, human 5-HT2C receptor (Homo sapiens, UniProt P28335); assay: cell-based; settings: Ca2+ flux, agonist mode
T4 sequence (P28335 33-458): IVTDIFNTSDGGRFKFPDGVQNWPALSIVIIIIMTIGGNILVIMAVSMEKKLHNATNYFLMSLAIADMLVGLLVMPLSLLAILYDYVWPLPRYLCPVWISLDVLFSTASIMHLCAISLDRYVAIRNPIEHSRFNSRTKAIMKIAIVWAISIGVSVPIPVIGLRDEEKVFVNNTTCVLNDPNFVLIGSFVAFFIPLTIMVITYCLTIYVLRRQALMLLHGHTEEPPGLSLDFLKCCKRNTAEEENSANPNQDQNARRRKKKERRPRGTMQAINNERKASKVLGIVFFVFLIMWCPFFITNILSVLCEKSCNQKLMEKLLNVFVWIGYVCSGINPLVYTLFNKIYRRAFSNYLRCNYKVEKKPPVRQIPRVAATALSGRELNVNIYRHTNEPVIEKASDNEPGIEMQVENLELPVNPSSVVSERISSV

[11] = Ca2+ flux, agonist mode, HEK293
[12] = Ca2+ flux, agonist mode, HEK293, read-out: 5-HT2A EC50

T1 sequence (P41595 whole entry): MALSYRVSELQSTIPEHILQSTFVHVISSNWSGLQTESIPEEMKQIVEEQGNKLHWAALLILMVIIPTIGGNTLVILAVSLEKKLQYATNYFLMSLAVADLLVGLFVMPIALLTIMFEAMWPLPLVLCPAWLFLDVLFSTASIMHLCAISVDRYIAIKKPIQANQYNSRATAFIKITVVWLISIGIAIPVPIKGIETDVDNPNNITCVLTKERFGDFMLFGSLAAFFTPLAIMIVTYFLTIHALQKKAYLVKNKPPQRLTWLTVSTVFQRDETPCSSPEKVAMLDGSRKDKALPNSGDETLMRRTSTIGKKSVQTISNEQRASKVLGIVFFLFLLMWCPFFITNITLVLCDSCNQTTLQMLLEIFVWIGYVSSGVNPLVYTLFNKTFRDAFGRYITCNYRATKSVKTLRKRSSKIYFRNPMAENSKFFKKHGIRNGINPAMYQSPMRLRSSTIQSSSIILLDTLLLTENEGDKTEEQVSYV
T2 sequence (P28223 whole entry): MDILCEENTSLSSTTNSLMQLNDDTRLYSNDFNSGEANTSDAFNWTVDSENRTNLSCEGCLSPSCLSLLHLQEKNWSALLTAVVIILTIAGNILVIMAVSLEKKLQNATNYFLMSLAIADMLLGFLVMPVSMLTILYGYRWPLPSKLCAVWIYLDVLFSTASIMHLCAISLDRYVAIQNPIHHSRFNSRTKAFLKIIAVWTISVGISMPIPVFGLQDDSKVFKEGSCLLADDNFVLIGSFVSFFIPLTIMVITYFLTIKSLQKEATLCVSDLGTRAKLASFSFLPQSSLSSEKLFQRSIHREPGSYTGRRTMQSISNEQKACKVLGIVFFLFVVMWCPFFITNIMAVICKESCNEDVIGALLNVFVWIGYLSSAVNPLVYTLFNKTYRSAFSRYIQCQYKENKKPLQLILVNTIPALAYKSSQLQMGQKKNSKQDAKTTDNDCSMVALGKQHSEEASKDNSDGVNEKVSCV

SMILES	EC50 [1]	5-HT2B % Act @ Max Dose [1]	% Compound Remaining (after 120 min) [2]	5-HT2A % Act @ Max Dose [3, 11]	EC50 [4]	5-HT1A % Act @ Max Dose [4]	% Compound Remaining (after 120 min) [5]	microsomal CLint at 1 μM [7]	t1/2 [2]	t1/2 [5]	t1/2 [7]	further results
c1ccc2c(CCN3CCC3)c[nH]c2c1 [Compound 1, 3-(2-(azetidin-1-yl)ethyl)-1H-indole fumarate]	917 nM	22.6%	111.3%	73.2%	745 nM	135%	91.9%	12.4 µL/min/mg	–	–	–	stability in mouse brain homogenate (in words) [2]: good stability; half-life at 1 μM [2]: > 4.82 h; EC50 [3, 12]: 90.4 nM; fold more potent at 5-HT1A than dimethyl (and methylethyl) counterparts [4]: > 50 fold; stability in rat brain homogenate (in words) [5]: good stability; half-life at 1 μM [5]: > 4.82 h; Average HTR Over 20-min Test ([6]; dose 0.1 mg/kg): 5.00; Average HTR Over 20-min Test ([6]; dose 1 mg/kg): 2.17; Average HTR Over 20-min Test ([6]; dose 10 mg/kg): 1.00; half-life at 1 μM [7]: 1.86 h; metabolic stability in HLM compared with dimethyl counterpart [7]: greater metabolic stability
COc1ccc2[nH]cc(CCN3CCC3)c2c1 [Compound 3, 3-(2-(azetidin-1-yl)ethyl)-5-methoxy-1H-indole fumarate]	274 nM	35.0%	103.1%	99.3%	21.1 nM	112%	98%	< 9.6 µL/min/mg	–	–	–	stability in mouse brain homogenate (in words) [2]: good stability; half-life at 1 μM [2]: > 4.82 h; EC50 [3, 12]: 7.15 nM; fold more potent at 5-HT1A than dimethyl (and methylethyl) counterparts [4]: > 10 fold; stability in rat brain homogenate (in words) [5]: good stability; half-life at 1 μM [5]: > 4.82 h; half-life at 1 μM [7]: > 2.42 h; metabolic stability in HLM compared with dimethyl counterpart [7]: greater metabolic stability
CC(=O)Oc1cccc2[nH]cc(CCN3CCC3)c12 [Compound 4, 3-(2-(azetidin-1-yl)ethyl)-1H-indol-4-yl acetate]	–	–	–	–	–	–	–	–	–	–	–	stability compared with Compound 2 [8]: more stable to oxidation than Compound 2; hydrolysis of the ester to Compound 2 as active metabolite [9]: rapidly hydrolyzed
CCN(C)CCc1c[nH]c2cccc(O)c12 [Compound 4-HO-MET, 3-(2-(ethyl(methyl)amino)ethyl)-1H-indol-4-ol, reference compound]	> 10000 nM	1.09%	–	103%	14700 nM	73.0%	–	–	–	–	–	EC50 [3]: 15.1 nM; Average HTR Over 20-min Test ([6]; dose 0.1 mg/kg): 9.50; Average HTR Over 20-min Test ([6]; dose 1 mg/kg): 20.83; Average HTR Over 20-min Test ([6]; dose 10 mg/kg): 11.33; maximal effect in the HTR assay [6]: 20.8 head twitches/20 min
O=P(O)(O)Oc1cccc2[nH]cc(CCN3CCC3)c12 [Compound 5, 3-(2-(azetidin-1-yl)ethyl)-1H-indol-4-yl dihydrogen phosphate]	–	–	–	–	–	–	–	–	–	–	–	stability compared with Compound 2 [8]: more stable than Compound 2; hydrolysis of the ester to Compound 2 as active metabolite [9]: rapidly hydrolyzed
COc1ccc2[nH]cc(CCN(C)C)c2c1 [Compound 5-MeO-DMT, reference compound]	–	17.6%	91.2%	106%	–	100%	0.3%	102 µL/min/mg	>4.818 h	0.24 h	0.227 h	–
CN(C)CCc1c[nH]c2ccccc12 [DMT, N,N-dimethyltryptamine, reference compound]	–	10.4%	0.0%	93.4%	–	68.1%	0.0%	199 µL/min/mg	0.107 h	0.085 h	0.117 h	–
COc1cc(CC(C)N)c(OC)cc1I (stereo not shown) [DOI, 4-iodo-2,5-dimethoxyamphetamine, reference compound]	–	–	–	–	–	–	–	–	–	–	–	maximal effect in the HTR assay [6]: 35.6 head twitches/20 min
CCN(C)CCc1c[nH]c2ccccc12 [MET, N-ethyl-2-(1H-indol-3-yl)-N-methylethan-1-amine, reference compound]	> 100000 nM	22.5%	–	36.2%	89400 nM	73.6%	–	–	–	–	–	EC50 [3]: 17.1 nM; 5-HT2C % Act @ Max Dose [10]: 89.7%; EC50 [10]: 28.3 nM
CN(C)CCc1c[nH]c2cccc(O)c12 [Psilocin, psilocin, reference compound]	–	1.44%	97.6%	–	5260 nM	66.4%	46.1%	127 µL/min/mg	>4.818 h	1.913 h	1.828 h	–
